Calls of active or inactive are those of the source. The calls are words filed in the database; no cut-off is given here.
Experiments:
[1] = Antioxidant activity against […]-induced hemolysis of erythrocytes assessed as lag time of inhibition; type: functional, Erythrocyte
[2] = Antioxidant activity against […]-induced DNA damage assessed as inhibition time; type: functional
[3] = Antioxidant activity assessed as protection against hemin-induced erythrocytes hemolysis at 0.6 uM; type: functional; conditions: Erythrocyte
[4] = system: Radical scavenging activity; test: Antioxidant activity assessed as DPPH radical scavenging activity; type: functional
[5] = Antioxidant activity assessed as ABTS radical scavenging activity; type: functional
[6] = Antioxidant activity assessed as galvinoxyl radical scavenging activity; type: functional
Erythrocyte = test: Antioxidant activity assessed as protection against hemin-induced erythrocytes hemolysis up to 1 uM; type: functional, cell-based

| IC50 [4] [µM] | IC50 [5] [µM] | IC50 [6] [µM] | SMILES | Time [1] [min] | TIME [2] [h] | inhibition at 0.6 µM [3] [%] | Activity (Erythrocyte) |
| --- | --- | --- | --- | --- | --- | --- | --- |
| 43 | 6.5 | 7.1 | C[C@H](CS)C(=O)N1CCC[C@H]1C(=O)O [CAPTOPRIL] | 270 | 3.38 | 80 | – |
| 65 | 4.7 | 188 | Sc1ncnc2nc[nH]c12 [MERCAPTOPURINE ANHYDROUS] | 406 | 3 | – | inactive |
| 180 | 3.9 | 65 | OC[C@H]1O[C@@H](n2cnc3c(S)ncnc32)[C@H](O)[C@@H]1O [THIOINOSINE] | 482 | 3.12 | – | inactive |
| 22.8 | 11.6 | – | Cc1c(C)c2c(c(C)c1O)CCC(C)(C(=O)O)O2 (stereo not given) [TROLOX] | – | – | – | – |
